Values of other authors, collected in US8268848B2, “Cyclopropane compound” (Eisai R&D Management Co., Ltd., priority 2010, dated 2012).

What was measured:
Settings in all cases: cited from earlier work
rats = system: rats
normal humans = system: normal humans
patients with insomnia = system: patients with insomnia

In the case of `CNC(=O)[C@@H](c1ccccc1)N1CCc2cc(OC)c(OC)cc2[C@@H]1CCc1ccc(C(F)(F)F)cc1` [almorexant, (2R)-2-{(1S)-6,7-dimethoxy-1-[2-(4-trifluoromethyl-phenyl)ethyl]-3,4-dihydro-1H-isoquinolin-2-yl}-N-methyl-2-phenylacetamide], the “REM sleep time and non-REM sleep time” value (rats) is listed as “dose-dependently increases both rapid eye movement (REM) sleep time and non-REM sleep time”, the wakefulness (rats) is listed as “causes a decrease in wakefulness in rats” and the “sleep latency, sleep efficacy, total sleep time” value (normal humans) is listed as “exhibits dose-dependently a reduction of sleep latency, sleep efficacy and extension of total sleep time”. The “sleep efficacy, sleep latency, REM sleep” value (patients with insomnia) was “exhibits improvement of sleep efficacy, shortness of sleep latency, increase of REM sleep and improvement of REM sleep ratio”.
